Source: ChEMBL document CHEMBL1149401, “Isolation and inhibitory activity against ERK phosphorylation of hydroxyanthraquinones from rhubarb” (2006)
Calls of active or inactive are those of the source. The rule behind the calls is not given here.

Tests used:
[1] = target: Platelet-derived growth factor receptor (Homo sapiens) (UniProt P09619+P16234); assay: Inhibitory activity on PDGF-induced ERK phosphorylation in NIH3T3 cells at 20 uM; type: cell-based
[2] = system: PC-3; assay: Antiproliferative activity against prostate cancer PC3 cell line at 20 uM by MTT method; type: functional; settings: Homo sapiens
[3] = system: A-431; assay: Antiproliferative activity against human epidermal carcinoma A431 cell line at 20 uM by MTT method; type: functional
[4] = system: Fusarium oxysporum; assay: Antifungal activity against Fusarium oxysporum at 0.5 mg/ml; type: functional
[5] = system: Fusarium graminearum; assay: Antifungal activity against Gibberella zeae at 0.5 mg/ml; type: functional
[6] = system: Phytophthora infestans; assay: Antifungal activity against Phytopthora infestans at 0.5 mg/ml; type: functional
[7] = target: Epidermal growth factor receptor (Homo sapiens) (UniProt P00533); assay: Inhibitory activity on EGF-induced ERK phosphorylation in prostate cancer PC3 cell line at 20 uM; type: cell-based; settings: PC-3
Chain of Epidermal growth factor receptor (Homo sapiens) (P00533 whole entry): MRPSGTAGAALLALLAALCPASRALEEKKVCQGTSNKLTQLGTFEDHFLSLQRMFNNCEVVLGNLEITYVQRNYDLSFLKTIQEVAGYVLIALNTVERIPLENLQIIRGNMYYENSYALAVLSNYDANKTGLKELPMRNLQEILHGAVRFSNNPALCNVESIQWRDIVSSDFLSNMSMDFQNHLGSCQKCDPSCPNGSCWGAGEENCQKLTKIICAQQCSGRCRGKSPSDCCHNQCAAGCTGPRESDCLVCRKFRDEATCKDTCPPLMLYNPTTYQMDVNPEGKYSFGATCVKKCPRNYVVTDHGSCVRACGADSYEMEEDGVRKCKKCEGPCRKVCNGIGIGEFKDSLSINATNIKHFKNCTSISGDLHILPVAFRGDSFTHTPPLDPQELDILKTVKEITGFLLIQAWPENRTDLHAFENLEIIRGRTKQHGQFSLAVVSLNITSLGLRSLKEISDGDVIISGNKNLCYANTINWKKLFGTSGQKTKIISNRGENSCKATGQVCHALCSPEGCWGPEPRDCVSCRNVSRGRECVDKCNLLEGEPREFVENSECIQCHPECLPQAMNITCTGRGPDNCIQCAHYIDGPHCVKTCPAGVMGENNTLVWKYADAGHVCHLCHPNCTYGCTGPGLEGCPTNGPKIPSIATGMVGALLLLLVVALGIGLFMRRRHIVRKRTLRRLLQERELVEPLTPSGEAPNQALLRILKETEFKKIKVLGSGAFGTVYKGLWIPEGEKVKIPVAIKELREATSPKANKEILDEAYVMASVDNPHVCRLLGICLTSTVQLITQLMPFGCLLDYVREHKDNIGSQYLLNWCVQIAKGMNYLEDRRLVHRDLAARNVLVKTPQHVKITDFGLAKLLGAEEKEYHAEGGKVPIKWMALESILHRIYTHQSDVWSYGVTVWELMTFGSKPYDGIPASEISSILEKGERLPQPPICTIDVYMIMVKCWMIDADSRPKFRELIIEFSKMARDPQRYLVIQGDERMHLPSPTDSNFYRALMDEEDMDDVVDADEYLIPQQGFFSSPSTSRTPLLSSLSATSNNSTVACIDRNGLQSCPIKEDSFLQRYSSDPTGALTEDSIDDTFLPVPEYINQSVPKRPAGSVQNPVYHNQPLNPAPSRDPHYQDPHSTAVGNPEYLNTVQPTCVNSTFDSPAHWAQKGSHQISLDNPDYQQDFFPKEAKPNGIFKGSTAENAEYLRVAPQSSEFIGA

SMILES: Cc1cc(O)c2c(c1)C(=O)c1cccc(O)c1C2=O [CHRYSOPHANOL]
- Activity [1]: inactive
- inhibition at 20 µM [2]: 19.5%
- inhibition at 20 µM [3]: 21.1%
- inhibition at 500 µg/mL [4]: 5.4%
- inhibition at 500 µg/mL [5]: 0%
- inhibition at 500 µg/mL [6]: 2.4%

SMILES: Cc1cc(O)c2c(c1)C(=O)c1cc(O)cc(O)c1C2=O [EMODIN]
- Activity [1]: inactive
- inhibition [2]: inactive
- inhibition [3]: inactive
- inhibition at 500 µg/mL [4]: 9.37%
- inhibition at 500 µg/mL [5]: 25.7%
- inhibition at 500 µg/mL [6]: 21.2%

SMILES: O=C1c2cccc(O)c2C(=O)c2c(O)cc(CO)cc21 [ALOE-EMODIN]
- Activity [1]: inactive
- Activity [7]: Active
- inhibition at 20 µM [2]: 63.4%
- inhibition at 20 µM [3]: 73.6%
- inhibition at 500 µg/mL [4]: 28.8%
- inhibition at 500 µg/mL [5]: 37.1%
- inhibition at 500 µg/mL [6]: 24.4%

SMILES: O=C(O)c1cc(O)c2c(c1)C(=O)c1cccc(O)c1C2=O [RHEIN]
- Activity [1]: inactive
- inhibition at 20 µM [2]: 54.2%
- inhibition [3]: inactive
- inhibition at 500 µg/mL [4]: 39.8%
- inhibition at 500 µg/mL [5]: 33.4%
- inhibition at 500 µg/mL [6]: 39.5%

SMILES: COc1cc(O)c2c(c1)C(=O)c1cc(C)cc(O)c1C2=O [PHYSCION]
- Activity [1]: inactive
- inhibition at 20 µM [2]: 73.2%
- inhibition at 20 µM [3]: 80.5%
- inhibition at 500 µg/mL [4]: 0%
- inhibition at 500 µg/mL [5]: 10.1%
- inhibition at 500 µg/mL [6]: 19.1%
